Entries after “also recorded” stand apart in the source; their conditions may differ.
Legend:
ABCA1 [1] = experiment: Cholesterol efflux in the absence and presence of ABCA1 (mouse macrophages and HeLa cells transfected with ABCA1 cDNA); type: cell-based; conditions: 8 hours, saturating peptide >30-fold Km
Text: The large excess of polypeptide was provided to determine the extent (if any) of non-specific efflux, in the absence of ABCA1 induction.

[2] = tested on: Apolipoprotein E deficient (Apo E −/−) mice; experiment: Established atherosclerosis in Apo E -/- mice on high-fat diet (Example 18); type: in vivo, mouse; conditions: 10 mg/kg IP at 2-day intervals
Experimental: Male Apolipoprotein E deficient (Apo E −/−) mice (six-weeks of age) were fed a high-fat diet for 26 weeks. During the last 6 weeks on the high-fat diet, the mice received intraperitoneal (IP) injections of either saline or the polypeptide of SEQ ID NO:4 (10 mg/kg) at 2-day intervals. […] The effect of the polypeptide reducing established atherosclerosis was highly significant, as judged by the lipid-content of plaques in the aortic sinus (see, FIG. 18). This was accomplished using the lipid-free polypeptide of SEQ ID NO:4 composed of all L-amino acids administered in the continued presence of the dietary insult.

[3] = tested on: Apolipoprotein E knock-out mice; experiment: Atherosclerosis in Apolipoprotein E knock-out mice on Western diet, pooled series (Example 19); type: in vivo, mouse
Experimental: The polypeptide of SEQ ID NO:4 and its Y26 analog have been evaluated with respect to ability to inhibit atherosclerosis in Apolipoprotein E knock-out mice. The mice were given Western diet for 18 weeks and then randomized to receive saline, free polypeptide or polypeptide-phospholipid complex. […] The degree of atherosclerosis was then determined in whole aorta and aortic root/sinus. Three experimental series were performed. […] The results are equal to or better than previously have been obtained with IV infusions of 40 mg/kg Apolipoprotein A-I Milano/phospholipids complex into Apo E knock-out mice (Shah et al., Circ., 97:780-5, 1998).
As noted above, data from three experimental series were pooled. Pooling of data is justified as only minor changes in the procedures were made (21 injections at 30 mg/kg over 42 and 21 days, respectively), and the diet regimens and sources of mice and polypeptide, respectively, were the same. In the first experiment S26 was substituted for Y26.

LDLr knockout mice = experiment: Atherosclerosis in LDLr knockout mice; type: in vivo, mouse; conditions: 30 mg/kg IP every day for 6 weeks on chow after 26 weeks western-diet
Experimental: Beginning at 6 weeks of age, LDLr knockout mice were fed a high-fat western-diet for 26 weeks. After the dietary challenge, mice were switched to standard chow for 6 weeks. During the 6 weeks on chow diet, mice were injected IP every day with either the polypeptide of SEQ ID NO:4 or a polypeptide of SEQ ID NO:4:POPC complexes at a dose of 30 mg/kg. Control mice received IP injections with PBS vehicle alone. The presence of plaque lesions in the whole aorta was then evaluated.

ABCA1 [4] = biological target: ABCA1 (Mus musculus, UniProt P41233); experiment: Cholesterol efflux from [3H]cholesterol-labeled ABCA1-expressing J774 mouse macrophages; type: cell-based; set-up: to upregulate cellular ABCA1 protein; endogenous in cells; host or cells: J774 mouse macrophages
Chain of ABCA1 (Mus musculus, UniProt P41233) (P41233 whole entry): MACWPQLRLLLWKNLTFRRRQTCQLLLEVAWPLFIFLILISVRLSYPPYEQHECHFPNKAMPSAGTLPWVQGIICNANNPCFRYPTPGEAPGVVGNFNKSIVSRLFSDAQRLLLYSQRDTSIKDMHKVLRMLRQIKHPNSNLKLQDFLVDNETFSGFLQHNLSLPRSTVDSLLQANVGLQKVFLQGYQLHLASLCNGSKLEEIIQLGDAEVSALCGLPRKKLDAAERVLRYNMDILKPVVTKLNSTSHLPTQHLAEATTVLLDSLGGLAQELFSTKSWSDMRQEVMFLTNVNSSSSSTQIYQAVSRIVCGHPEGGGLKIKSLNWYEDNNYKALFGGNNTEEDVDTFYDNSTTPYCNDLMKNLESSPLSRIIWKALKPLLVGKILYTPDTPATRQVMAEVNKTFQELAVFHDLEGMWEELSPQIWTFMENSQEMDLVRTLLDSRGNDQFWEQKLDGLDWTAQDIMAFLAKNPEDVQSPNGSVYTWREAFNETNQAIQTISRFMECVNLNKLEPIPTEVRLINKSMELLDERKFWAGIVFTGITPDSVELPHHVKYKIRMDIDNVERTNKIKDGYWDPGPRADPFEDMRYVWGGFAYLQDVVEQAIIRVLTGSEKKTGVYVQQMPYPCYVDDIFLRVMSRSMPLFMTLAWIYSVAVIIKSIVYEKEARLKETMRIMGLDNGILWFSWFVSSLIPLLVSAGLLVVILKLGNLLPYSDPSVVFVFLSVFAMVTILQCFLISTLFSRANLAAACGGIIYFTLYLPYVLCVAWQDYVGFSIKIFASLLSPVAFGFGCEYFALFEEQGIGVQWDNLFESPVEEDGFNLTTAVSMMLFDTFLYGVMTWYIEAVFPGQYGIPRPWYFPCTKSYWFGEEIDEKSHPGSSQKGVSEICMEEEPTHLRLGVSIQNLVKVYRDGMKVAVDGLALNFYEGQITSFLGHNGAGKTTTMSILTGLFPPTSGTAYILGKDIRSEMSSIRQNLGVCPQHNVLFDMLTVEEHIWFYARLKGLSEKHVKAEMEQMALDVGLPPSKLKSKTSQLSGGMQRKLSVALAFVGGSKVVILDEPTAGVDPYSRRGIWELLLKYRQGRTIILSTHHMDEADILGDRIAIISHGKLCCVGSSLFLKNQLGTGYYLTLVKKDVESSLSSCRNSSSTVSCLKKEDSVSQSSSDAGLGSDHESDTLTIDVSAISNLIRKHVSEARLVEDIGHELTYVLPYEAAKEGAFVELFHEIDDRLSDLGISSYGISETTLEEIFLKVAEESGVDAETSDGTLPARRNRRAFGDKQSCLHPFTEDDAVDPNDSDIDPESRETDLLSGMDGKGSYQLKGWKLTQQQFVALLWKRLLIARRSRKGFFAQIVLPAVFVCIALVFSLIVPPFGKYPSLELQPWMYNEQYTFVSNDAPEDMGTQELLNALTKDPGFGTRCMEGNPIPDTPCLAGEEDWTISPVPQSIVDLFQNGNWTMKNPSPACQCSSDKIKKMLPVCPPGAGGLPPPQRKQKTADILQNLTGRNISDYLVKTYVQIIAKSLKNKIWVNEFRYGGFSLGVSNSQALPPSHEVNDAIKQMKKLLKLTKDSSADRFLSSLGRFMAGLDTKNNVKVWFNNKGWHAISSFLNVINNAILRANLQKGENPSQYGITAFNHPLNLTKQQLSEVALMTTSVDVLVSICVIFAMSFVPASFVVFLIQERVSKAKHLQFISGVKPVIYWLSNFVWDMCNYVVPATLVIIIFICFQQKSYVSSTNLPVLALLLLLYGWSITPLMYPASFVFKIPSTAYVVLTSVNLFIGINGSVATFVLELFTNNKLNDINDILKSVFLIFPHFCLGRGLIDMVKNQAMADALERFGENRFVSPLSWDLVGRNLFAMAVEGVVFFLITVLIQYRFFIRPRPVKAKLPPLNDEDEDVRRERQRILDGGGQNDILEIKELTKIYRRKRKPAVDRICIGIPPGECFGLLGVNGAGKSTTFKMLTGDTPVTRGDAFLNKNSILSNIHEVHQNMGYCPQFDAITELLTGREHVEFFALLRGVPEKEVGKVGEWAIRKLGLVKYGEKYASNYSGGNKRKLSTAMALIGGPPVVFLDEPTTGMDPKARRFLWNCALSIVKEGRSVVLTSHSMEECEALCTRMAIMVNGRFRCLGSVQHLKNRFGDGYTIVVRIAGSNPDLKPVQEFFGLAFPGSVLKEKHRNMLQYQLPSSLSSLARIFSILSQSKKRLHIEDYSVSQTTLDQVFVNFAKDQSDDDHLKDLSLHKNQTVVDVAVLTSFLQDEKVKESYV

[5] = 30 mg/kg IP, 6 weeks of treatment

Sequence: EVRSKLEEWFAAFREFAEEFLARLKS (ATI-5261 amphipathic alpha-helix polypeptide core sequence selectively binds HDL, high-affinity ligand for ATP-binding cassette transporter A1 (ABCA1), ABCA1-lipid cholesterol efflux, ABCA1-stablization, anti-oxidant and anti- inflammatory activity) [SEQ ID NO:4]
- non-specific efflux activity in the absence of ABCA1 (ABCA1 [1]): minimal
- requirement of ABCA1 for cholesterol efflux activity (ABCA1 [1]; mouse macrophages and ABCA1-transfected HeLa): required ABCA1 for efflux activity
- effect on established atherosclerosis (in words) ([2]; 6 weeks): reduced aortic plaque lipid content; also recorded: significantly reduced established atherosclerosis
- greater atherosclerosis in saline control mice compared to treated mice ([2]; last 6 weeks of 26 weeks high-fat diet, lipid-content of aortic sinus plaques): 38%
- lipid-content of aortic sinus plaque [3, 5]: decreased the lipid-content of aortic sinus plaque
- plaque lesion area over the whole aorta [3, 5]: reduced plaque lesion area over the whole aorta
- antiatherosclerotic effect (whole aorta and aortic root/sinus) ([3]; 30 mg/kg IP, 21 injections, pooled data of three series): significant antiatherosclerotic effects
- p versus control, FIG. 19A percent of lipid in plaque in whole aorta ([3]; pooled data): < 0.0040
- plaque lesions in the whole aorta (LDLr knockout mice): reduced plaque lesion area over the whole aorta; also recorded: the amount of plaque was reduced
- cholesterol efflux efficiency/potency on per molecule (molar) basis versus apolipoproteins (ABCA1 [4]; Km in molar units): molar potency similar to that of apolipoproteins; also recorded: activity similar to full-length Apo A-I, Apo E, and the C-terminal (CT) domain of Apo E
- cholesterol efflux at low mass concentrations (ABCA1 [4]; increasing concentrations based on mass): relatively high-levels of cholesterol efflux
- more potent than ApoA-I in stimulating cholesterol efflux (ABCA1 [4]; mass basis, over working concentration range): at least 300%

Reference: patent publication US8987192B2, “Potent and selective mediators of cholesterol efflux” (The Regents of the University of California, priority 2006, dated 2015)
